The record followed here is patent US20160002204A1 (Board of Regents, The University of Texas System, priority 2014, published 2016).

The target in experiment [1] is T1, GLS1 (purified recombinant human GAC) (Homo sapiens, UniProt O94925).
T1 sequence (O94925 55-598 isoform O94925-3 limits assumed): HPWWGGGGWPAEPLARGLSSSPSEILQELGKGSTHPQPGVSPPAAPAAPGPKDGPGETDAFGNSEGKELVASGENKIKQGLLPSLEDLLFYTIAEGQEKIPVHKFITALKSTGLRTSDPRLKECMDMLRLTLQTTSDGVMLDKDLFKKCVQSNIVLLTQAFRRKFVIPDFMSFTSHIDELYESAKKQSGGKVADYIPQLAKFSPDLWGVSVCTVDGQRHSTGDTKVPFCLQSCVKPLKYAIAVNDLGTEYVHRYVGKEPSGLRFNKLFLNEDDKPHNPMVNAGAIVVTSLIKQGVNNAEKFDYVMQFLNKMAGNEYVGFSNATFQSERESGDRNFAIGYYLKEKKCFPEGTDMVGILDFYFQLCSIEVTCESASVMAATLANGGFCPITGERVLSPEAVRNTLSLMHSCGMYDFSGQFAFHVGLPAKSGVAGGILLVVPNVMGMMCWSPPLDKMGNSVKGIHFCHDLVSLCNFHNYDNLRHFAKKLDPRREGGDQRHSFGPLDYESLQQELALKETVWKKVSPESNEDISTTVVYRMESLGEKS
Nature of the experiment: GLS1 enzymatic activity assay (dual-coupled, Amplex UltraRed/resorufin). The class given is biochemical. In short, it runs like this:
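Recombinant human GAC (2 nM) preincubated with 50 mM potassium phosphate, then inhibitor (10 min each, RT); 1 mM glutamine, pH 7.4 Hepes buffer, 1% DMSO. Glutamate coupled via glutamate oxidase/HRP to resorufin (Ex 530/Em 590), kinetic or 20-min endpoint; IC50 by four-parameter logistic fit.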

A further experiment deals with A549 cells. Briefly: A549 proliferation (viability) assay, Cell Titer Fluor, 72 hours. The class given is cell-based. As to conditions: Homo sapiens. The method in brief:
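A549 cells in RPMI 1640 with 10% dialyzed FBS were seeded at 1000 cells/well, grown 24 h, then exposed to compound (0.5% DMSO final) for 72 h at 37 °C, 5% CO2. Viability was read by Cell Titer Fluor fluorescence; EC50 from four-parameter logistic fit.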

In general, IC50 refers to the concentration needed to halve the response being measured. In general, EC50 refers to the concentration at which the effect is half-maximal. A lower EC50 goes with a more potent agent.

SMILES strings stand for the structures. Some results are limits rather than exact numbers.

For the compound `Cc1ccc(CNC(=O)c2cn(CCCCn3ccc(NC(=O)Cc4ccccc4)cc3=O)nn2)cn1` [Example 158, N-[(6-methylpyridin-3-yl)methyl]-1-{4-[2-oxo-4-(2-phenylacetamido)-1,2-dihydropyridin-1-yl]butyl}-1H-1,2,3-triazole-4-carboxamide], the concentration for half-maximal inhibition (IC50) in experiment [1] is less than 0.1 µM. The EC50 in the experiment on A549 cells is 0.5 to 5 µM.
For `Cc1ccc(CNC(=O)c2cn(CCCCn3ccc(NC(=O)C4CCCC4)cc3=O)nn2)cn1` [Example 159, 1-[4-(4-cyclopentaneamido-2-oxo-1,2-dihydropyridin-1-yl)butyl]-N-[(6-methylpyridin-3-yl)methyl]-1H-1,2,3-triazole-4-carboxamide], in that order: 0.1 to 0.5 µM and 0.5 to 5 µM.
In the same order, the values of `O=C(Cc1ccccc1)Nc1ccn(CC(F)CCn2cc(C(=O)NCc3cc(Br)ccn3)nn2)c(=O)c1` (stereo not shown) [Example 160, N-[(4-bromopyridin-2-yl)methyl]-1-{3-fluoro-4-[2-oxo-4-(2-phenylacetamido)-1,2-dihydropyridin-1-yl]butyl}-1H-1,2,3-triazole-4-carboxamide] are less than 0.1 µM and 0.5 to 5 µM.
In the same order, the values of `O=C(Cc1ccccc1)Nc1ccn(CC(F)CCn2cc(C(=O)NCc3cc(C(F)(F)F)ccn3)nn2)c(=O)c1` (stereo not shown) [Example 161, 1-{3-fluoro-4-[2-oxo-4-(2-phenylacetamido)-1,2-dihydropyridin-1-yl]butyl}-N-{[4-(trifluoromethyl)pyridin-2-yl]methyl}-1H-1,2,3-triazole-4-carboxamide] are less than 0.1 µM and 0.1 to 0.5 µM.
Take `Cc1cccc(CNC(=O)c2cn(CCC(F)Cn3ccc(NC(=O)Cc4ccccc4)cc3=O)nn2)n1` (stereo not shown) [Example 162, 1-{3-fluoro-4-[2-oxo-4-(2-phenylacetamido)-1,2-dihydropyridin-1-yl]butyl}-N-[(6-methylpyridin-2-yl)methyl]-1H-1,2,3-triazole-4-carboxamide]: in experiment [1], the IC50 was less than 0.1 µM. This compound came in with an EC50 in the experiment on A549 cells of 0.5 to 5 µM.
With `O=C(Cc1ccccc1)Nc1ccn(CCC(F)Cn2cc(C(=O)NCc3cc(Br)ccn3)nn2)c(=O)c1` (stereo not shown) [Example 163, N-[(4-bromopyridin-2-yl)methyl]-1-{2-fluoro-4-[2-oxo-4-(2-phenylacetamido)-1,2-dihydropyridin-1-yl]butyl}-1H-1,2,3-triazole-4-carboxamide], the IC50 in experiment [1] was less than 0.1 µM. Further, the half-maximal effective concentration (EC50) in the experiment on A549 cells lay within 0.1 to 0.5 µM.
`O=C(Cc1ccccc1)Nc1ccn(CCC(F)Cn2cc(C(=O)NCc3cc(C(F)(F)F)ccn3)nn2)c(=O)c1` (stereo not shown) [Example 164, 1-{2-fluoro-4-[2-oxo-4-(2-phenylacetamido)-1,2-dihydropyridin-1-yl]butyl}-N-{[4-(trifluoromethyl)pyridin-2-yl]methyl}-1H-1,2,3-triazole-4-carboxamide]: the IC50 in experiment [1] was less than 0.1 µM. The same compound displayed an EC50 in the experiment on A549 cells of 0.1 to 0.5 µM.
Turning to `Cc1cccc(CNC(=O)c2cn(CC(F)CCn3ccc(NC(=O)Cc4ccccc4)cc3=O)nn2)n1` (stereo not shown) [Example 165, 1-{2-fluoro-4-[2-oxo-4-(2-phenylacetamido)-1,2-dihydropyridin-1-yl]butyl}-N-[(6-methylpyridin-2-yl)methyl]-1H-1,2,3-triazole-4-carboxamide], the IC50 in experiment [1] was less than 0.1 µM. In addition, the EC50 in the experiment on A549 cells fell in the range of 0.5 to 5 µM.
With `O=C(CC1CCC(F)(F)CC1)Nc1ccn(CCCCn2cc(C(=O)NCc3cccc(OC(F)(F)F)c3)nn2)c(=O)c1` [Example 166, 1-(4-{4-[2-(4,4-difluorocyclohexyl)acetamido]-2-oxo-1,2-dihydropyridin-1-yl}butyl)-N-{[3-(trifluoromethoxy)phenyl]methyl}-1H-1,2,3-triazole-4-carboxamide], the IC50 in experiment [1] is less than 0.1 µM. In the experiment on A549 cells, this compound registered a half-maximal effective concentration (EC50) of less than 0.1 µM.
For the compound `O=C(NCc1cccc(OC(F)(F)F)c1)c1cn(CCCCn2ccc(NC(=O)C(F)c3ccccc3)cc2=O)nn1` (stereo not shown) [Example 167, 1-{4-[4-(2-fluoro-2-phenylacetamido)-2-oxo-1,2-dihydropyridin-1-yl]butyl}-N-{[3-(trifluoromethoxy)phenyl]methyl}-1H-1,2,3-triazole-4-carboxamide], the IC50 in experiment [1] is less than 0.1 µM. The compound further showed a 50% effective concentration (EC50) in the experiment on A549 cells of less than 0.1 µM.
With `O=C(CC1CC1(F)F)Nc1ccn(CCCCn2cc(C(=O)NCc3cccc(OC(F)(F)F)c3)nn2)c(=O)c1` (stereo not shown) [Example 168, 1-(4-{4-[2-(2,2-difluorocyclopropyl)acetamido]-2-oxo-1,2-dihydropyridin-1-yl}butyl)-N-{[3-(trifluoromethoxy)phenyl]methyl}-1H-1,2,3-triazole-4-carboxamide], the IC50 in experiment [1] is less than 0.1 µM. Also, in the experiment on A549 cells, the EC50 was 0.5 to 5 µM.
For `O=C(CC1CCSCC1)Nc1ccn(CCCCn2cc(C(=O)NCc3cccc(OC(F)(F)F)c3)nn2)c(=O)c1` [Example 169, 1-(4-{2-oxo-4-[2-(thian-4-yl)acetamido]-1,2-dihydropyridin-1-yl}butyl)-N-{[3-(trifluoromethoxy)phenyl]methyl}-1H-1,2,3-triazole-4-carboxamide], in that order: less than 0.1 µM and 0.1 to 0.5 µM.
In the same order, the values of `COC1CCC(CC(=O)Nc2ccn(CCCCn3cc(C(=O)NCc4cccc(OC(F)(F)F)c4)nn3)c(=O)c2)CC1` (stereo not shown) [Example 170, 1-(4-{4-[2-(4-methoxycyclohexyl)acetamido]-2-oxo-1,2-dihydropyridin-1-yl}butyl)-N-{[3-(trifluoromethoxy)phenyl]methyl}-1H-1,2,3-triazole-4-carboxamide] are less than 0.1 µM and 0.1 to 0.5 µM.
In the same order, the values of `O=C(Cc1ccccc1)Nc1cnn(CCCCn2cc(C(=O)NCc3cccc(OC(F)(F)F)c3)nn2)c(=O)c1` [Example 172, 1-{4-[6-oxo-4-(2-phenylacetamido)-1,6-dihydropyridazin-1-yl]butyl}-N-{[3-(trifluoromethoxy)phenyl]methyl}-1H-1,2,3-triazole-4-carboxamide] are 0.1 to 0.5 µM and 0.5 to 5 µM.
For the compound `O=C(Cc1ccccc1)Nc1ccn(CCCCn2cc(C(=O)NCc3cccc(OC(F)(F)F)c3)nn2)c(=O)c1F` [Example 173, 1-{4-[3-fluoro-2-oxo-4-(2-phenylacetamido)-1,2-dihydropyridin-1-yl]butyl}-N-{[3-(trifluoromethoxy)phenyl]methyl}-1H-1,2,3-triazole-4-carboxamide], the 50% inhibitory concentration (IC50) in experiment [1] is less than 0.1 µM. This compound also displayed a 50% effective concentration (EC50) in the experiment with A549 cells of less than 0.1 µM.
On to `O=C(Nc1ccn(CCCCn2cc(C(=O)NCc3cccc(OC(F)(F)F)c3)nn2)c(=O)c1)OC1CCC(F)(F)CC1` [Example 174, 4,4-difluorocyclohexyl N-(2-oxo-1-{4-[4-({[3-(trifluoro-methoxy)phenyl]methyl}carbamoyl)-1H-1,2,3-triazol-1-yl]butyl}-1,2-dihydropyridin-4-yl)carbamate], for which the IC50 in experiment [1] was less than 0.1 µM. The same compound came in with an EC50 in the experiment on A549 cells of 0.1 to 0.5 µM.
In the same order, the values of `O=C(CC1CCCCC1)Nc1ccn(CCC(F)Cn2cc(C(=O)NCc3cccc(OC(F)(F)F)c3)nn2)c(=O)c1` (stereo not shown) [Example 175, 1-{4-[4-(2-cyclohexylacetamido)-2-oxo-1,2-dihydropyridin-1-yl]-2-fluorobutyl}-N-{[3-(trifluoromethoxy)phenyl]methyl}-1H-1,2,3-triazole-4-carboxamide] are less than 0.1 µM and less than 0.1 µM.
